One assay relates to alkaline phosphatase activity in T47D cells. The assay is described as follows: Effects of progestins and antiprogestins on alkaline phosphatase activity in T47D cells. Type of assay: cell-based. The settings on record: Homo sapiens, T47D; reference progestins, agonist mode; typical values. The procedure: Effects of Progestins and Antiprogestins on Alkaline Phosphatase Activity in T47D Cells
This example was performed to identify progestins or antiprogestins by determining a compound's effect on alkaline phosphatase activity in T47D cells.
Culture medium: DMEM:F12 (1:1) (GIBCO, BRL) supplemented with 5% (v/v) charcoal stripped fetal bovine serum (not heat-inactivated), 100 U/mL penicillin, 100 μg/mL streptomycin, and 2 mM the GlutaMax™ reagent (GIBCO, BRL).
Alkaline phosphatase assay buffer: • I. 0.1M Tris-HCl, pH 9.8, containing 0.2% the Triton® X-100 reagent • II. 0.1 M Tris-HCl, pH 9.8, containing 4 mM p-nitrophenyl phosphate (Sigma).
Frozen T47D cells were thawed in a 37° C. water bath and diluted to 280,000 cells/mL in culture medium. To each well in a 96-well plate (Falcon, Becton Dickinson Labware), 180 μL of diluted cell suspension was added. Twenty μL of reference or test compounds diluted in the culture medium was then added to each well. When testing for progestin antagonist activity, reference antiprogestins or test compounds were added in the presence of 1 nM progesterone. The cells were incubated at 37° C. in a 5% CO2/humidified atmosphere for 24 hours. NOTE: For high throughput screening, one concentration of each compound was tested at 0.3 μg/mL. Based on an average molecular weight of 300 g/mol for the compounds in the library, the concentration was approximately 1 μM. Subsequently, active compounds were tested in dose response assays to determine EC50 and IC50.
At the end of treatment, the medium was removed from the plate. Fifty μL of assay buffer I was added to each well. The plates were shaken in a titer plate shaker for 15 minutes. 150 μL of assay buffer II was then added to each well. Optical density measurements were taken at 5 minute intervals for 30 minutes at a test wavelength of 405 nm.
For reference and test compounds, a dose response curve was generated for dose (X-axis) vs. the rate of enzyme reaction (slope) (Y-axis). Square root-transformed data was used for analysis of variance and nonlinear dose response curve fitting for both agonist and antagonist modes. Huber weighting was used to down-weight the effects of outliners. EC50 or IC50 values were calculated from the retransformed values. JMP software (SAS Institute, Inc.) was used for both one-way analysis of variance and non-4 linear dose response analysis in both single dose and dose response studies.
Progesterone and trimegestone are reference progestins known in the art and typically show an EC50 of about 0.1 nM to about 2.0 nM.
Usually EC50 stands for the concentration needed to bring the measured effect to its halfway point. Lower therefore signals greater potency. With `CC(=O)[C@H]1CC[C@H]2[C@@H]3CCC4=CC(=O)CC[C@]4(C)[C@H]3CC[C@]12C` [Progesterone], the EC50 fell in the range of 0.1 to 2 nM.

The assay is the same for the next values; noted with them: Homo sapiens; T47D alkaline phosphatase assay; antagonist mode in the presence of 1 nM progesterone; 24 hours.
For orientation: IC50 means the concentration needed to halve the response being measured. For the compound `CCCNS(=O)(=O)c1ccc(-c2ccc(C#N)n2C)c(F)c1` [Example 36, 4-(5-cyano-1-methyl-1H-pyrrol-2-yl)-3-fluoro-N-propylbenzenesulfonamide], the half-maximal inhibitory concentration (IC50) turned out to be 26.5 nM. For `CN(C)S(=O)(=O)c1ccc(-c2ccc(C#N)n2C)cc1` [Example 2, 4-(5-cyano-1-methyl-1H-pyrrol-2-yl)-N,N-dimethylbenzenesulfonamide], the IC50 came to 81.3 nM. Still for that read-out and setting: the value for `CCNS(=O)(=O)c1ccc(-c2ccc(C#N)n2C)c(F)c1` [Example 33, 4-(5-cyano-1-methyl-1H-pyrrol-2-yl)-N-ethyl-3-fluorobenzenesulfonamide] was 13.1 nM.

Take `Cn1c(C#N)ccc1-c1ccc(S(=O)(=O)NC2CC2)cc1` [Example 14, 4-(5-cyano-1-methyl-1H-pyrrol-2-yl)-N-cyclopropylbenzenesulfonamide]: the IC50 was 6.6 nM. The same measure, in the same setting: the value for `CCNS(=O)(=O)c1ccc(-c2ccc(C#N)n2C)cc1` [Example 3, 4-(5-cyano-1-methyl-1H-pyrrol-2-yl)-N-ethylbenzenesulfonamide] was 11.4 nM; that for `Cn1c(C#N)ccc1-c1ccc(S(=O)(=O)NCC2CC2)cc1` [Example 17, 4-(5-cyano-1-methyl-1H-pyrrol-2-yl)-N-(cyclopropylmethyl)benzenesulfonamide] was 27.6 nM; that for `Cn1c(C#N)ccc1-c1ccc(S(=O)(=O)NC2CCC2)c(C(F)(F)F)c1` [Example 29, 4-(5-cyano-1-methyl-1H-pyrrol-2-yl)-N-cyclobutyl-2-(trifluoromethyl)benzenesulfonamide] was 17 nM. On to `Cn1c(C#N)ccc1-c1cc(F)c(S(=O)(=O)NCC2CC2)cc1F` [Example 62, 4-(5-cyano-1-methyl-1H-pyrrol-2-yl)-N-(cyclopropylmethyl)-2,5-difluorobenzenesulfonamide], for which the concentration for half-maximal inhibition (IC50) is 164 nM. `CCN(CC)S(=O)(=O)c1ccc(-c2ccc(C#N)n2C)cc1OC(F)(F)F` [Example 50, 4-(5-cyano-1-methyl-1H-pyrrol-2-yl)-N,N-diethyl-2-(trifluoromethoxy)benzenesulfonamide]: the IC50 is 101 nM. For `CCN(CC)S(=O)(=O)c1ccc(-c2ccc(C#N)n2C)c(F)c1` [Example 34, 4-(5-cyano-1-methyl-1H-pyrrol-2-yl)-N,N-diethyl-3-fluorobenzenesulfonamide], the IC50 worked out at 65.6 nM. Consider `CCN(CC)S(=O)(=O)c1ccc(-c2ccc(C#N)n2C)cc1C(F)(F)F` [Example 22, 4-(5-cyano-1-methyl-1H-pyrrol-2-yl)-N,N-diethyl-2-(trifluoromethyl)benzenesulfonamide], for which the IC50 came to 80.4 nM.

With `CCN(C)S(=O)(=O)c1ccc(-c2ccc(C#N)n2C)cc1` [Example 7, 4-(5-cyano-1-methyl-1H-pyrrol-2-yl)-N-ethyl-N-methylbenzenesulfonamide], the IC50 amounted to 66.1 nM. `Cn1c(C#N)ccc1-c1ccc(S(=O)(=O)NC2CCC2)cc1` [Example 13, 4-(5-cyano-1-methyl-1H-pyrrol-2-yl)-N-cyclobutylbenzenesulfonamide]: the IC50 amounted to 13.9 nM. Consider `CC(C)NS(=O)(=O)c1ccc(-c2ccc(C#N)n2C)c(F)c1` [Example 35, 4-(5-cyano-1-methyl-1H-pyrrol-2-yl)-3-fluoro-N-isopropylbenzenesulfonamide], for which the IC50 was 26.8 nM.

Still in this assay, the particulars now being: T47D alkaline phosphatase assay; antagonist mode in the presence of 1 nM progesterone; 24 hours.
Consider `Cn1c(C#N)ccc1-c1ccc(S(=O)(=O)NC2CCC2)c(OC(F)(F)F)c1` [Example 56, 4-(5-cyano-1-methyl-1H-pyrrol-2-yl)-N-cyclobutyl-2-(trifluoromethoxy)benzenesulfonamide], for which the “Active Dose” value came to 0.03 µM.

On to `Cn1c(C#N)ccc1-c1ccc(S(=O)(=O)NC(C)(C)C)cc1` [Example 9, N-(tert-butyl)-4-(5-cyano-1-methyl-1H-pyrrol-2-yl)benzenesulfonamide], for which the “Active Dose” value was 10 µM.

For the origin of these results see patent publication US7723332B2, “Aryl sulfonamides useful for modulation of the progesterone receptor” (Wyeth LLC, priority 2007, dated 2010).
